Results taken from patent US20080096831A1, “Stabilized azithromycin composition” (priority 2003, published 2008).

Experiment: Impurity analysis of azithromycin monohydrate granules by HPLC after storage at 50° C. for 8 days
Format: physicochemical
Details: results of Table 1
Procedure: Wet granules prepared according to the procedure set forth in Example 1 were placed on a tray which was placed in an oven at 55° C. Six samples were taken at different times and the moisture content was determined using an OHAUS Balance. The water/moisture content of each sample varied from 3.3-12.5 wt %, based on the total weight of the granules. The samples were stored in glass bottles, sealed, and placed in an oven at 50° C. After 8 days, the samples were removed from the oven and the amount and type of impurities was determined by high performance liquid chromatography (HPLC).
Sample solutions were freshly prepared from azithromycin monohydrate and injected on column. The percentages of impurities was calculated from the integrator output. The performance of the HPLC system was tested using standardized solutions of azithromycin monohydrate.
Three impurities were identified and measured as a percentage of the total azithromycin monohydrate in each sample.

CC[C@H]1OC(=O)[C@H](C)[C@@H](O[C@H]2C[C@@](C)(OC)[C@@H](O)[C@H](C)O2)[C@H](C)[C@@H](O[C@@H]2O[C@H](C)C[C@H](N(C)C)[C@H]2O)[C@](C)(O)C[C@@H](C)CN(C)[C@H](C)[C@@H](O)[C@]1(C)O (relative stereo) [azithromycin monohydrate, [2R-(2R*,3S*,4R*,5R*,8R*, 10R*, 11R*, 12S*, 13S*, 14R*)]-13-[(2,6-dideoxy-3-C-methyl-3-β-methyl-α-L-ribo-hexopyranosyl)oxy]-2-ethyl-3,4,10-trihydroxy-3,5,6,8,10,12,14-heptamethyl-11-[[3,4,6-trideoxy-3-(dimethylamino)-β-D-xylo-hexopyranosyl]oxy]-1-oxa-6-azacyclopentadecan-15-one monohydrate]
water content range in which chemical stability is good: 5.5-12.4 wt %
